US20230123334A1, “AMINO LIPID COMPOUND, PREPARATION METHOD THEREFOR, AND APPLICATION THEREOF” (SHENZHEN SHENXIN BIOTECHNOLOGY CO., LTD., priority 2020, published 2023)

Assays:
HEK293 cells [1] = test: Preliminary screening as mRNA vectors, EGFP mRNA transfection of HEK293 cells; assay type: cell-based; conditions: HEK293 cells, 96-well plates, EGFP mRNA 50 ng per well; percentage of GFP fluorescent cells relative to total number of cells (Hoechst)
Summary of the method: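 HEK293 cells in DMEM plus 10% FBS transfected in 96-well format with 50 ng EGFP mRNA per well; Lipofectamine2000 served as positive control. Read-out is the percentage of GFP-fluorescent cells among total cells, counted by Hoechst nuclear stain.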

HEK293 cells [2] = test: Preliminary screening as DNA vectors, GFP transfection of HEK293 cells; assay type: cell-based; conditions: HEK293 cells; lipid/DOPE liposome with 75 ng plasmid DNA (psin-EGFP-IRES-Puro); number of cells expressing GFP divided by total number of nuclei (Hoechst)
Summary of the method: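 HEK293 cells in DMEM/10% FBS transfected with 75 ng EGFP plasmid per well complexed with amino lipid/DOPE liposomes in pH 5.6 sodium acetate. Hoechst nuclear stain added 20-24 h post-transfection, then cells cultured another 20-24 h. Confocal imaging gives GFP-positive cells as % of total nuclei.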

## CCCCCCCCCCCCCCCCSc1nc(NCC2CCN(C)CC2)nc(SCCCCCCCCCCCC)n1 [Compound S12S16D10]
HEK293 cells [1]
  Absolute mRNA transfection efficiency in HEK293 cells: 13.2%
HEK293 cells [2]
  Absolute DNA transfection efficiency in HEK293 cells: 7.3%

## CCCCCCCCCCCCCCCCCCSc1nc(NCCN(C)C)nc(SCCCCCCCCCCCC)n1 [Compound S12S18D1]
HEK293 cells [1]
  Absolute mRNA transfection efficiency in HEK293 cells: 0.0%
HEK293 cells [2]
  Absolute DNA transfection efficiency in HEK293 cells: 0.0%

## CCCCCCCCCCCCCCCCCCSc1nc(NCCN2CCOCC2)nc(SCCCCCCCCCCCC)n1 [Compound S12S18D2]
HEK293 cells [1]
  Absolute mRNA transfection efficiency in HEK293 cells: 0.0%
HEK293 cells [2]
  Absolute DNA transfection efficiency in HEK293 cells: 0.0%

## CCCCCCCCCCCCCCCCCCSc1nc(NCCN2CCCC2)nc(SCCCCCCCCCCCC)n1 [Compound S12S18D3]
HEK293 cells [1]
  Absolute mRNA transfection efficiency in HEK293 cells: 0.2%
HEK293 cells [2]
  Absolute DNA transfection efficiency in HEK293 cells: 2.1%

## CCCCCCCCCCCCCCCCCCSc1nc(NCCN2CCCCC2)nc(SCCCCCCCCCCCC)n1 [Compound S12S18D4]
HEK293 cells [1]
  Absolute mRNA transfection efficiency in HEK293 cells: 5.1%
HEK293 cells [2]
  Absolute DNA transfection efficiency in HEK293 cells: 2.6%

## CCCCCCCCCCCCCCCCCCSc1nc(NCCN2CCN(C)CC2)nc(SCCCCCCCCCCCC)n1 [Compound S12S18D5]
HEK293 cells [1]
  Absolute mRNA transfection efficiency in HEK293 cells: 0.0%
HEK293 cells [2]
  Absolute DNA transfection efficiency in HEK293 cells: 0.7%

## CCCCCCCCCCCCCCCCCCSc1nc(NCCCN(C)C)nc(SCCCCCCCCCCCC)n1 [Compound S12S18D6]
HEK293 cells [1]
  Absolute mRNA transfection efficiency in HEK293 cells: 0.1%
HEK293 cells [2]
  Absolute DNA transfection efficiency in HEK293 cells: 1.0%

## CCCCCCCCCCCCCCCCCCSc1nc(NCCN(CC)CC)nc(SCCCCCCCCCCCC)n1 [Compound S12S18D7]
HEK293 cells [1]
  Absolute mRNA transfection efficiency in HEK293 cells: 0.0%
HEK293 cells [2]
  Absolute DNA transfection efficiency in HEK293 cells: 0.7%

## CCCCCCCCCCCCCCCCCCSc1nc(NCCCN2CCOCC2)nc(SCCCCCCCCCCCC)n1 [Compound S12S18D8]
HEK293 cells [1]
  Absolute mRNA transfection efficiency in HEK293 cells: 0.0%
HEK293 cells [2]
  Absolute DNA transfection efficiency in HEK293 cells: 0.4%

## CCCCCCCCCCCCCCCCCCSc1nc(NCCCN2CCN(C)CC2)nc(SCCCCCCCCCCCC)n1 [Compound S12S18D9]
HEK293 cells [1]
  Absolute mRNA transfection efficiency in HEK293 cells: 0.0%
HEK293 cells [2]
  Absolute DNA transfection efficiency in HEK293 cells: 1.0%

## CCCCCCCCCCCCCCCCCCSc1nc(NCC2CCN(C)CC2)nc(SCCCCCCCCCCCC)n1 [Compound S12S18D10]
HEK293 cells [1]
  Absolute mRNA transfection efficiency in HEK293 cells: 7.7%
HEK293 cells [2]
  Absolute DNA transfection efficiency in HEK293 cells: 7.5%

## CCCCCCCCCCCCCCSc1nc(NCCN(C)C)nc(SCCCCCCCCCCCCCC)n1 [Compound S14S14D1]
HEK293 cells [1]
  Absolute mRNA transfection efficiency in HEK293 cells: 0.0%
HEK293 cells [2]
  Absolute DNA transfection efficiency in HEK293 cells: 0.1%

## CCCCCCCCCCCCCCSc1nc(NCCN2CCOCC2)nc(SCCCCCCCCCCCCCC)n1 [Compound S14S14D2]
HEK293 cells [1]
  Absolute mRNA transfection efficiency in HEK293 cells: 0.0%
HEK293 cells [2]
  Absolute DNA transfection efficiency in HEK293 cells: 0.0%

## CCCCCCCCCCCCCCSc1nc(NCCN2CCCC2)nc(SCCCCCCCCCCCCCC)n1 [Compound S14S14D3]
HEK293 cells [1]
  Absolute mRNA transfection efficiency in HEK293 cells: 0.1%
HEK293 cells [2]
  Absolute DNA transfection efficiency in HEK293 cells: 0.2%

## CCCCCCCCCCCCCCSc1nc(NCCN2CCCCC2)nc(SCCCCCCCCCCCCCC)n1 [Compound S14S14D4]
HEK293 cells [1]
  Absolute mRNA transfection efficiency in HEK293 cells: 0.8%
HEK293 cells [2]
  Absolute DNA transfection efficiency in HEK293 cells: 0.7%

## CCCCCCCCCCCCCCSc1nc(NCCN2CCN(C)CC2)nc(SCCCCCCCCCCCCCC)n1 [Compound S14S14D5]
HEK293 cells [1]
  Absolute mRNA transfection efficiency in HEK293 cells: 0.0%
HEK293 cells [2]
  Absolute DNA transfection efficiency in HEK293 cells: 0.0%

## CCCCCCCCCCCCCCSc1nc(NCCCN(C)C)nc(SCCCCCCCCCCCCCC)n1 [Compound S14S14D6]
HEK293 cells [1]
  Absolute mRNA transfection efficiency in HEK293 cells: 0.2%
HEK293 cells [2]
  Absolute DNA transfection efficiency in HEK293 cells: 0.2%

## CCCCCCCCCCCCCCSc1nc(NCCN(CC)CC)nc(SCCCCCCCCCCCCCC)n1 [Compound S14S14D7]
HEK293 cells [1]
  Absolute mRNA transfection efficiency in HEK293 cells: 2.8%
HEK293 cells [2]
  Absolute DNA transfection efficiency in HEK293 cells: 2.3%

## CCCCCCCCCCCCCCSc1nc(NCCCN2CCOCC2)nc(SCCCCCCCCCCCCCC)n1 [Compound S14S14D8]
HEK293 cells [1]
  Absolute mRNA transfection efficiency in HEK293 cells: 0.0%
HEK293 cells [2]
  Absolute DNA transfection efficiency in HEK293 cells: 0.0%

## CCCCCCCCCCCCCCSc1nc(NCCCN2CCN(C)CC2)nc(SCCCCCCCCCCCCCC)n1 [Compound S14S14D9]
HEK293 cells [1]
  Absolute mRNA transfection efficiency in HEK293 cells: 0.0%
HEK293 cells [2]
  Absolute DNA transfection efficiency in HEK293 cells: 0.0%

## CCCCCCCCCCCCCCSc1nc(NCC2CCN(C)CC2)nc(SCCCCCCCCCCCCCC)n1 [Compound S14S14D10]
HEK293 cells [1]
  Absolute mRNA transfection efficiency in HEK293 cells: 1.5%
HEK293 cells [2]
  Absolute DNA transfection efficiency in HEK293 cells: 0.9%

## CCCCCCCCCCCCCCCSc1nc(NCCN(C)C)nc(SCCCCCCCCCCCCCC)n1 [Compound S14S15D1]
HEK293 cells [1]
  Absolute mRNA transfection efficiency in HEK293 cells: 0.0%
HEK293 cells [2]
  Absolute DNA transfection efficiency in HEK293 cells: 0.1%

## CCCCCCCCCCCCCCCSc1nc(NCCN2CCOCC2)nc(SCCCCCCCCCCCCCC)n1 [Compound S14S15D2]
HEK293 cells [1]
  Absolute mRNA transfection efficiency in HEK293 cells: 0.0%
HEK293 cells [2]
  Absolute DNA transfection efficiency in HEK293 cells: 0.1%

## CCCCCCCCCCCCCCCSc1nc(NCCN2CCCC2)nc(SCCCCCCCCCCCCCC)n1 [Compound S14S15D3]
HEK293 cells [1]
  Absolute mRNA transfection efficiency in HEK293 cells: 0.0%
HEK293 cells [2]
  Absolute DNA transfection efficiency in HEK293 cells: 0.3%

## CCCCCCCCCCCCCCCSc1nc(NCCN2CCCCC2)nc(SCCCCCCCCCCCCCC)n1 [Compound S14S15D4]
HEK293 cells [1]
  Absolute mRNA transfection efficiency in HEK293 cells: 0.1%
HEK293 cells [2]
  Absolute DNA transfection efficiency in HEK293 cells: 0.7%

## CCCCCCCCCCCCCCCSc1nc(NCCN2CCN(C)CC2)nc(SCCCCCCCCCCCCCC)n1 [Compound S14S15D5]
HEK293 cells [1]
  Absolute mRNA transfection efficiency in HEK293 cells: 0.0%
HEK293 cells [2]
  Absolute DNA transfection efficiency in HEK293 cells: 0.0%

## CCCCCCCCCCCCCCCSc1nc(NCCCN(C)C)nc(SCCCCCCCCCCCCCC)n1 [Compound S14S15D6]
HEK293 cells [1]
  Absolute mRNA transfection efficiency in HEK293 cells: 0.1%
HEK293 cells [2]
  Absolute DNA transfection efficiency in HEK293 cells: 0.2%

## CCCCCCCCCCCCCCCSc1nc(NCCN(CC)CC)nc(SCCCCCCCCCCCCCC)n1 [Compound S14S15D7]
HEK293 cells [1]
  Absolute mRNA transfection efficiency in HEK293 cells: 0.4%
HEK293 cells [2]
  Absolute DNA transfection efficiency in HEK293 cells: 0.6%

## CCCCCCCCCCCCCCCSc1nc(NCCCN2CCOCC2)nc(SCCCCCCCCCCCCCC)n1 [Compound S14S15D8]
HEK293 cells [1]
  Absolute mRNA transfection efficiency in HEK293 cells: 0.0%
HEK293 cells [2]
  Absolute DNA transfection efficiency in HEK293 cells: 0.0%

## CCCCCCCCCCCCCCCSc1nc(NCCCN2CCN(C)CC2)nc(SCCCCCCCCCCCCCC)n1 [Compound S14S15D9]
HEK293 cells [1]
  Absolute mRNA transfection efficiency in HEK293 cells: 0.0%
HEK293 cells [2]
  Absolute DNA transfection efficiency in HEK293 cells: 0.0%

## CCCCCCCCCCCCCCCSc1nc(NCC2CCN(C)CC2)nc(SCCCCCCCCCCCCCC)n1 [Compound S14S15D10]
HEK293 cells [1]
  Absolute mRNA transfection efficiency in HEK293 cells: 0.5%
HEK293 cells [2]
  Absolute DNA transfection efficiency in HEK293 cells: 0.3%

## CCCCCCCCCCCCCCCCSc1nc(NCCN(C)C)nc(SCCCCCCCCCCCCCC)n1 [Compound S14S16D1]
HEK293 cells [1]
  Absolute mRNA transfection efficiency in HEK293 cells: 0.0%
HEK293 cells [2]
  Absolute DNA transfection efficiency in HEK293 cells: 0.0%

## CCCCCCCCCCCCCCCCSc1nc(NCCN2CCOCC2)nc(SCCCCCCCCCCCCCC)n1 [Compound S14S16D2]
HEK293 cells [1]
  Absolute mRNA transfection efficiency in HEK293 cells: 0.0%
HEK293 cells [2]
  Absolute DNA transfection efficiency in HEK293 cells: 0.0%

## CCCCCCCCCCCCCCCCSc1nc(NCCN2CCCC2)nc(SCCCCCCCCCCCCCC)n1 [Compound S14S16D3]
HEK293 cells [1]
  Absolute mRNA transfection efficiency in HEK293 cells: 0.2%
HEK293 cells [2]
  Absolute DNA transfection efficiency in HEK293 cells: 0.4%

## CCCCCCCCCCCCCCCCSc1nc(NCCN2CCCCC2)nc(SCCCCCCCCCCCCCC)n1 [Compound S14S16D4]
HEK293 cells [1]
  Absolute mRNA transfection efficiency in HEK293 cells: 0.0%
HEK293 cells [2]
  Absolute DNA transfection efficiency in HEK293 cells: 0.6%

## CCCCCCCCCCCCCCCCSc1nc(NCCN2CCN(C)CC2)nc(SCCCCCCCCCCCCCC)n1 [Compound S14S16D5]
HEK293 cells [1]
  Absolute mRNA transfection efficiency in HEK293 cells: 0.2%
HEK293 cells [2]
  Absolute DNA transfection efficiency in HEK293 cells: 0.1%

## CCCCCCCCCCCCCCCCSc1nc(NCCCN(C)C)nc(SCCCCCCCCCCCCCC)n1 [Compound S14S16D6]
HEK293 cells [1]
  Absolute mRNA transfection efficiency in HEK293 cells: 0.9%
HEK293 cells [2]
  Absolute DNA transfection efficiency in HEK293 cells: 1.2%

## CCCCCCCCCCCCCCCCSc1nc(NCCN(CC)CC)nc(SCCCCCCCCCCCCCC)n1 [Compound S14S16D7]
HEK293 cells [1]
  Absolute mRNA transfection efficiency in HEK293 cells: 1.8%
HEK293 cells [2]
  Absolute DNA transfection efficiency in HEK293 cells: 1.1%

## CCCCCCCCCCCCCCCCSc1nc(NCCCN2CCOCC2)nc(SCCCCCCCCCCCCCC)n1 [Compound S14S16D8]
HEK293 cells [1]
  Absolute mRNA transfection efficiency in HEK293 cells: 0.0%
HEK293 cells [2]
  Absolute DNA transfection efficiency in HEK293 cells: 0.0%

## CCCCCCCCCCCCCCCCSc1nc(NCCCN2CCN(C)CC2)nc(SCCCCCCCCCCCCCC)n1 [Compound S14S16D9]
HEK293 cells [1]
  Absolute mRNA transfection efficiency in HEK293 cells: 0.0%
HEK293 cells [2]
  Absolute DNA transfection efficiency in HEK293 cells: 0.0%

## CCCCCCCCCCCCCCCCSc1nc(NCC2CCN(C)CC2)nc(SCCCCCCCCCCCCCC)n1 [Compound S14S16D10]
HEK293 cells [1]
  Absolute mRNA transfection efficiency in HEK293 cells: 0.8%
HEK293 cells [2]
  Absolute DNA transfection efficiency in HEK293 cells: 2.7%
